Each structure is given as a SMILES string.

These results are taken from patent US20020026053A1, “Novel 3-(substituted) -2- indolinones compounds and use thereof as inhibitors of protein kinase activity” (priority 1997, published 2002).

The target of this experiment is T1, EGFR (Homo sapiens, UniProt P00533).
T1 construct: endogenous in cells; host or cells: A431 cells (lysate, captured with SUMO1 anti-EGFR antibody)
The experiment is described as follows: Biochemical EGFR Assay. Set-up: concentration or dose not given beside the values. The method, then: This assay measures the in vitro kinase activity of EGFR using ELISA.
1. Corning 96-well Elisa plates (Corning Catalog No. 25805-96).
2. SUMO1 monoclonal anti-EGFR antibody (Biochemistry Lab, SUGEN, Inc.).
3. PBS (Dulbecco's Phosphate-Buffered Saline, Gibco Catalog No. 450-1300EB).
6. A431 cell lysate (Screening Lab, SUGEN, Inc.)
9. Adenosine-5′-triphosphate (ATP, from Equine muscle, Sigma Cat. No. A-5394).
Prepare a 1.0 mM solution in dH2O. This reagent should be made up immediately prior to use and kept on ice.
Prepare a 1.0 M stock solution in dH2O.
11. ATP/MnCl2 phosphorylation mix
This reagent should be prepared immediately before use and kept on ice
12. NUNC 96-well V bottom polypropylene plates (Applied Scientific Cat. No. AS-72092).
13. Ethylenediaminetetraacetic acid (EDTA)
Prepare 200 mM working solution in dH2O. Adjust to pH 8.0 with 10 N NaOH.
14. Rabbit polyclonal anti-phosphotyrosine serum (Biochemistry Lab, SUGEN, Inc.)
15. Goat anti-rabbit IgG peroxidase conjugate (Biosource Cat. No. ALI0404)
16. ABTS (2,2′-azino-bis(3-ethylbenzthiazoline-6-sulfonic acid), Sigma Cat. No. A-1888).
Mix first two ingredients in about 900 ml dH2O, adjust pH to 4.0 with phosphoric acid. Add ABTS, cover, let sit about 0.5 hr., filter. The solution should be kept in the dark at 4° C. until ready to use.
17. Hydrogen peroxide 30% solution (Fisher Cat. No. H325)
Mix 15 ml ABTS solution and 2.0 μl H2O2. Prepare 5 minutes before use.
1. Coat Corning 96 well ELISA plates with 0.5 μg SUMO1 in 100 μl PBS per well, store overnight at 4° C.
2. Remove unbound SUMO1 from wells by inverting plate to remove liquid. Wash 1× with dH2O. Pat the plate on a paper towel to remove excess liquid.
3. Add 150 μl of Blocking Buffer to each well. Incubate for 30 min. at room temperature with shaking.
4. Wash plate 3× with deionized water, then once with TBST. Pat plate on a paper towel to remove excess liquid and bubbles.
5. Dilute lysate in PBS (7 μg lysate/100 μl PBS)
6. Add 100 μl of diluted lysate to each well. Shake at room temperature for 60 min.
7. Wash plates as described in 4, above.
8. Add 120 μl TBS to ELISA plate containing captured EGFR.
9. Dilute test compound 1:10 in TBS in 96-well polypropylene plates (ie. 10 μl compound+90 μl TBS).
10. Add 13.5 μl diluted test compound to ELISA plate.
11. Incubate for 30 minutes while shaking at room temperature.
13. After 5 minutes, stop reaction by adding 16.5 μl of 200 mM EDTA (pH 8.0) to each well, shaking continuously. After the EDTA has been added, shake for 1 min.
14. Wash 4× with deionized water, twice with TBST.
15. Add 100 μl anti-phosphotyrosine (1:3000 dilution in TBST) per well. Incubate 30-45 min. at room temperature, with shaking.
16. Wash as described in 4, above.
17. Add 100 μl Biosource Goat anti-rabbit IgG peroxidase conjugate (1:2000 dilution in TBST) to each well. Incubate 30 min. at room temperature, with shaking.
18. Wash as described in 4, above.
19. Add 100 μl of ABTS/H2O2 solution to each well.
20. Incubate 5 to 10 minutes with shaking. Remove any bubbles.
21. If necessary stop reaction with the addition of 100 μl 0.2 M HCl per well.
22. Read assay on Dynatech MR7000 ELISA reader. Test Filter: 410 nM Reference Filter: 630 nM

T1 sequence (P00533 25-1210): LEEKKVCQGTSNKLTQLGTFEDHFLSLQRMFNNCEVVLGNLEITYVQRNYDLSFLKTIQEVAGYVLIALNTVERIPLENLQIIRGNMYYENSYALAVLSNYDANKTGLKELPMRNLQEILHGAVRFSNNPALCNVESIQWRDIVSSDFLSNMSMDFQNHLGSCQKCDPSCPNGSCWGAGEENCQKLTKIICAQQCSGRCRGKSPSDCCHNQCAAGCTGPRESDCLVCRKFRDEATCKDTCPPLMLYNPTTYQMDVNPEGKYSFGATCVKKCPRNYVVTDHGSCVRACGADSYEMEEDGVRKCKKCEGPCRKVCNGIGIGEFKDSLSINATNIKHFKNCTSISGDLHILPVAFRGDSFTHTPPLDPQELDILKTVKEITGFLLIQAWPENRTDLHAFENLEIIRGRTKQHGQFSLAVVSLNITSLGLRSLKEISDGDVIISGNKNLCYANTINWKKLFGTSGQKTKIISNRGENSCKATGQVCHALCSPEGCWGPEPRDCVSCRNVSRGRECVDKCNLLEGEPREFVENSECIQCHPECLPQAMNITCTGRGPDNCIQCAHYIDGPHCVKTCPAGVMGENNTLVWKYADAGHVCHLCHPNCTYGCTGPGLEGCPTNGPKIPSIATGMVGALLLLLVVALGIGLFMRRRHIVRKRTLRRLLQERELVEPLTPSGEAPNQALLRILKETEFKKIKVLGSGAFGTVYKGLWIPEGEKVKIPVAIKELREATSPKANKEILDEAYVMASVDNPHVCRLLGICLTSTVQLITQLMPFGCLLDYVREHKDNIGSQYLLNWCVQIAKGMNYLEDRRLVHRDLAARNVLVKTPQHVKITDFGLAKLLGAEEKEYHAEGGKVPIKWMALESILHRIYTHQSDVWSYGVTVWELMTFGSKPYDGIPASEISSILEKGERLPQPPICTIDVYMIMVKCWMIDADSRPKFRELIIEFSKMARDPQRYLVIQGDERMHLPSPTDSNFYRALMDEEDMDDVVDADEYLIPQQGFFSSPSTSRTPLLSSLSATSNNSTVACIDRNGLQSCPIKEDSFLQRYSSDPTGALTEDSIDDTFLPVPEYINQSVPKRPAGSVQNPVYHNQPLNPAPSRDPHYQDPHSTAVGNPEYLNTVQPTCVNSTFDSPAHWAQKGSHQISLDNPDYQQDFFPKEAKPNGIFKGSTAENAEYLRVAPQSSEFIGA

In the case of `Cc1ccc2occ(C=C3C(=O)Nc4c(Br)cc(Br)c(C)c43)c(=O)c2c1` [10731/H06], the “Biochem EGFR % Inhibition (P.167)” value is −7.8%.
On to `Cc1c(Br)cc(Br)c2c1C(=Cc1coc3ccc([N+](=O)[O-])cc3c1=O)C(=O)N2` [10731/H07], for which the “Biochem EGFR % Inhibition (P.167)” value was −1.7%.
For the molecule `Cc1c(Br)cc(Br)c2c1C(=Cc1c[nH]c(=O)[nH]c1=O)C(=O)N2` [10731/H08], the “Biochem EGFR % Inhibition (P.167)” value is listed as −0.5%.
Consider `COc1ccc2[nH]cc(C=C3C(=O)Nc4c(Br)cc(Br)c(C)c43)c2c1` [10731/H09], for which the “Biochem EGFR % Inhibition (P.167)” value is on record as −2.7%.
On to `Cc1c(Br)cc(Br)c2c1C(=C1C(=O)N(C)c3ccccc31)C(=O)N2` [10731/H10], for which the “Biochem EGFR % Inhibition (P.167)” value came to 3.5%.
For `Cc1c(Br)cc(Br)c2c1C(=CC(c1cccs1)C(F)(F)F)C(=O)N2` (stereo not shown) [10732/H02], the “Biochem EGFR % Inhibition (P.167)” value is on record as 13.0%.
Take `COc1c(C(C)C)cc(C=C2C(=O)Nc3c(Br)cc(Br)c(C)c32)cc1C(C)C` [10732/H03]: the “Biochem EGFR % Inhibition (P.167)” value is 1.4%.
The value for `Cc1c(Br)cc(Br)c2c1C(=Cc1cc(C(C)C)c(Oc3ccccc3)c(C(C)C)c1)C(=O)N2` [10732/H04] was −0.7%; that for `COc1ccc(C=C2C(=O)Nc3c(Br)cc(Br)c(C)c32)cc1C(C)(C)C` [10732/H05] was −2.9%; that for `Cc1c(Br)cc(Br)c2c1C(=Cc1ccc(OCc3ccccc3)c(C(C)(C)C)c1)C(=O)N2` [10732/H06] was −6.9%.
As for `COc1c(Br)cc(C=C2C(=O)Nc3c(Br)cc(Br)c(C)c32)cc1C(C)(C)C` [10732/H07], the figure is −15.3%; as for `Cc1c(Br)cc(Br)c2c1C(=Cc1cc(Br)c(OCc3ccccc3)c(C(C)(C)C)c1)C(=O)N2` [10732/H08], −14.0%; as for `COc1c(Cl)cc(C=C2C(=O)Nc3c(Br)cc(Br)c(C)c32)cc1C(C)(C)C` [10732/H09], −7.4%.
As for `Cc1c(Br)cc(Br)c2c1C(=Cc1cc(Cl)c(OCc3ccccc3)c(C(C)(C)C)c1)C(=O)N2` [10732/H10], the “Biochem EGFR % Inhibition (P.167)” value is −21.3%.
As for `COc1c(I)cc(C=C2C(=O)Nc3c(Br)cc(Br)c(C)c32)cc1C(C)(C)C` [10732/H11], the figure is −15.1%.
Take `Cc1c(Br)cc(Br)c2c1C(=Cc1cc(I)c(OCc3ccccc3)c(C(C)(C)C)c1)C(=O)N2` [10733/H02]: the “Biochem EGFR % Inhibition (P.167)” value was determined as 3.2%.
`COc1c([N+](=O)[O-])cc(C=C2C(=O)Nc3c(Br)cc(Br)c(C)c32)cc1C(C)(C)C` [10733/H03]: the “Biochem EGFR % Inhibition (P.167)” value is −16.5%.
Take `COc1c(C(C)(C)C)cc(C=C2C(=O)Nc3c(Br)cc(Br)c(C)c32)cc1C(C)(C)C` [10733/H04]: the “Biochem EGFR % Inhibition (P.167)” value is −24.0%.
For the molecule `Cc1c(Br)cc(Br)c2c1C(=Cc1cc(C(C)(C)C)c(OCc3ccccc3)c(C(C)(C)C)c1)C(=O)N2` [10733/H05], the “Biochem EGFR % Inhibition (P.167)” value is 15.9%.
With `COc1c(C)cc(C=C2C(=O)Nc3c(Br)cc(Br)c(C)c32)cc1C` [10733/H06], the “Biochem EGFR % Inhibition (P.167)” value is listed as −10.5%.
Take `Cc1cc(C=C2C(=O)Nc3c(Br)cc(Br)c(C)c32)cc(C)c1OCc1ccccc1` [10733/H07]: the “Biochem EGFR % Inhibition (P.167)” value is on record as −6.2%.
Take `COc1cc(Br)cc(C=C2C(=O)Nc3c(Br)cc(Br)c(C)c32)c1O` [10733/H08]: the “Biochem EGFR % Inhibition (P.167)” value was 0.3%.
The value for `Cc1c(Br)cc(Br)c2c1C(=Cc1cc(Br)ccc1O)C(=O)N2` [10733/H09] was −3.1%; that for `Cc1c(Br)cc(Br)c2c1C(=Cc1cc([N+](=O)[O-])ccc1O)C(=O)N2` [10733/H10] was −3.1%.
For the molecule `COc1c(O)ccc(C=C2C(=O)Nc3c(Br)cc(Br)c(C)c32)c1[N+](=O)[O-]` [10733/H11], the “Biochem EGFR % Inhibition (P.167)” value is recorded as 7.0%.
